pIC50: −log10 of the molar value.
Target: cAMP and cAMP-inhibited cGMP 3',5'-cyclic phosphodiesterase 10A (Homo sapiens, UniProt Q9Y233)
Assay: Inhibition Assay: The human PDE10A full length assay was performed in 96-well micro titer plates. The reaction mixture of 50 ul contained 20 mM HEPES pH=7.5/10 mM MgCl2/0.05 mg/ml BSA (Sigma cat. # A-7906), 50 nM cGMP (Sigma, cat. # G6129) and 50 nM [3H]-cGMP (GE Healthcare, cat. # TRK392 S.A. 13.2 Ci/mmol), 3.75 ng/well PDE10A enzyme (Enzo Life Science, Lausen, Switzerland cat # SE-534) with or without a specific test compound. A range of concentrations of the potential inhibitor was used to generate data for calculating the concentration of inhibitor resulting in 50% of the effect (e.g. IC50, the concentration of the competitor inhibiting PDE10A activity by 50%). Non-specific activity was tested without the enzyme. The reaction was initiated by the addition of the substrate solution (cGMP and [3H]-cGMP) and allowed to progress for 20 minutes at room temperature. The reaction was terminated by adding 25 ul of YSi-SPA scintillation beads (GE Healthcare, cat. # RPNQ0150) in 18 mM zinc sulphate.

Sequence of cAMP and cAMP-inhibited cGMP 3',5'-cyclic phosphodiesterase 10A (Q9Y233 whole entry): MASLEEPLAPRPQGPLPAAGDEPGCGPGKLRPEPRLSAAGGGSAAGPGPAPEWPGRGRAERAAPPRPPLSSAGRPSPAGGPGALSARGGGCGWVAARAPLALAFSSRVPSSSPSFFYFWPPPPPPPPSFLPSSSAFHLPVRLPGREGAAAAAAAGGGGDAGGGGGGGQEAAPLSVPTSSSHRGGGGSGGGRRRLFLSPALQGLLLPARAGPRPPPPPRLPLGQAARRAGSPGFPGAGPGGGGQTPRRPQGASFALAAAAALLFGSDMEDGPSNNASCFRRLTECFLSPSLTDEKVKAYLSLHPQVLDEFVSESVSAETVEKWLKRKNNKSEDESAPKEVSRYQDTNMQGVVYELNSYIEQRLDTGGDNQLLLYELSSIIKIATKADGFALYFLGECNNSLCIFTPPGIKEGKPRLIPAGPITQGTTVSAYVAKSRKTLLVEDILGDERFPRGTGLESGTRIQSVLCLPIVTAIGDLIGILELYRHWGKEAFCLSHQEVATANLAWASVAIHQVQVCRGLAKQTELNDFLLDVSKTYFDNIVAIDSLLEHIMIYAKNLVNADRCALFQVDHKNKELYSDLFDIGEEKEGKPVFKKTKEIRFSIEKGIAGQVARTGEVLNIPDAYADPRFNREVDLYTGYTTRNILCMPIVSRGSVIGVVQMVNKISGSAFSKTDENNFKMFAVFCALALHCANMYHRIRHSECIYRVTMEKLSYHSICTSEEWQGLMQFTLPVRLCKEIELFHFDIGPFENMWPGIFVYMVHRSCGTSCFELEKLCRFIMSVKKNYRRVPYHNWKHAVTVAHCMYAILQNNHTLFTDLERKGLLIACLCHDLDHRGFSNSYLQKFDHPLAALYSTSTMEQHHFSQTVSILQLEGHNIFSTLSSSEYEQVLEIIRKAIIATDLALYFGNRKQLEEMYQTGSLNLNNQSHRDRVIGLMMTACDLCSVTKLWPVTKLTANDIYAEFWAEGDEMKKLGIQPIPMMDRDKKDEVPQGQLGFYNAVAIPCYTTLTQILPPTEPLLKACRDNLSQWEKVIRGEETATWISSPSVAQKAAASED

Row | SMILES | pIC50
1 | CCN(CC)c1nc2ccc(NC(=O)c3c(C(=O)N4CCCC4)cnn3C)cn2n1 | 8.48
2 | Cn1ncc(C(=O)N2CCC2)c1C(=O)Nc1ccc2nc(N3CCOCC3)nn2c1 | 7.64

From ChEMBL document CHEMBL3886463, “Triazolopyridine compounds” (2016)
